The results in this text go back to PubChem BioAssay (NCI).

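Five compound concentrations were applied to cells in 96-well plates for 48 hours; endpoints were derived by simple linear interpolation of the resulting dose-response curve. Here, GI50 denotes the concentration required for 50% inhibition of growth. TGI is the concentration that stops growth completely.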

Holding throughout (assay): growth of human tumour cells (NCI), 48 h
Assay [1] has as its system HOP-62 NSCLC.
Assay [2] deals with HT29 colon.
The subject of assay [3] is MOLT-4 leukemia.
Assay [4] concerns OVCAR-3 ovarian.
The subject of assay [5] is OVCAR-4 ovarian.
Assay [6] relates to SF-268 CNS.
The test system of assay [7] is SF-539 CNS.
The test system of assay [8] is SK-MEL-28 melanoma.
Assay [9] relates to SNB-75 CNS.
Assay [10] relates to UO-31 renal.

For the molecule `O=C1Nc2ccccc2S/C1=C\c1ccccc1C(F)(F)F`, the TGI in [1] is more than 100 µM; in [2] it was more than 100 µM; in [3], more than 100 µM; in assay [4], more than 100 µM; in [5], 49.4 µM; in assay [6], more than 100 µM. For the same molecule, the TGI was more than 100 µM in assay [7], more than 100 µM in assay [8], 92.3 µM in [9] and more than 100 µM in [10].

On to `CCCCCCCCCCCCCCCC(=O)OCC1CCCN2CCCCC12` (stereo unspecified), for which the TGI in assay [1], in [2], in assay [3], in assay [4], in assay [5] and in [6] was more than 100 µM in each case. Further, the TGI in assay [7], in [8], in [9] and in assay [10] was more than 100 µM each time.

In the case of `CC(C)OC(=O)C1=C(O)c2ccccc2S(=O)(=O)N1`, the TGI in assay [1], in assay [2], in assay [3], in assay [4], in assay [5] and in assay [6] was more than 100 µM in each case. Further, the TGI in [7], in assay [8] and in assay [9] was more than 100 µM throughout.

As to `CC1CCC(O)(C(C)(C(=O)O)c2ccccc2)CC1` (stereo unspecified), the TGI in assay [1], in assay [2], in assay [3], in [4], in assay [5] and in [6] was more than 100 µM each time. Besides, the TGI in assay [8] and in assay [10] was more than 100 µM throughout.

For the molecule `Cc1ccc([N+](=O)[O-])cc1NC(=O)C(=O)C(C(=O)c1ccccc1F)C1OC(=O)c2ccccc21` (stereo unspecified), the TGI in assay [1] is more than 100 µM; in assay [2], more than 100 µM; in assay [3] it was more than 100 µM; in assay [5], more than 100 µM; in [6], 98.8 µM; in assay [7], 67.3 µM. Moreover, the TGI in [8], in assay [9] and in assay [10] was more than 100 µM throughout.

On to `CC(=O)O[C@H]1CC[C@@]2(C)C(=CC[C@@H]3[C@@H]2CC[C@]2(C)Nc4c(cnn4S(C)(=O)=O)C[C@@H]32)C1`, for which the TGI is more than 100 µM in [1]; 57 µM in [2]; 47.4 µM in [3]; more than 100 µM in assay [4]; more than 100 µM in assay [8]; more than 100 µM in [9]. In assay [10], this molecule displayed a TGI of more than 100 µM.

Turning to `O=C(O)NCc1ccccc1` (tested in a mixture with another compound), the TGI in [1] is more than 100 µM; in [2], more than 100 µM; in [3], 45.9 µM; in [4], more than 96.1 µM; in [5], more than 95.8 µM; in assay [6], more than 100 µM. Further, the TGI is more than 100 µM in assay [7], more than 100 µM in [8], 60.6 µM in assay [9] and 91.9 µM in assay [10].

Regarding `Cc1ccc(S(=O)(=O)N/N=c2\c(C)c(C3=NS(=O)(=O)c4cc(S(N)(=O)=O)c(Cl)cc4N3)oc3c(Cl)cc(Cl)cc23)cc1`, the TGI in assay [1], in [2], in [3], in assay [4], in [5] and in assay [6] was more than 100 µM each time. Moreover, the TGI in assay [7], in [8], in [9] and in [10] was more than 100 µM throughout.

Turning to `CCOC(=O)Nc1cc2c(c(N)n1)N=C(c1ccccc1)[C@H](C)N2`, the GI50 in assay [1] was less than 0.1 nM; in assay [5], 16.2 µM; in assay [7], 26.9 nM; in assay [9] it was 17.9 µM; in assay [10], 10.1 µM. Moreover, the TGI in [1] was 22.9 µM; in assay [3], 14.5 µM; in assay [4] it was 0.016 µM; in assay [5], more than 100 µM; in [6], more than 100 µM; in assay [7] it was 0.0669 µM. In assay [10], this molecule showed a TGI of 44.5 µM.

`C/C(=N\Oc1cc(Cl)ncn1)c1ccccn1`: the TGI in assay [1], in assay [2], in [3], in assay [4], in assay [5] and in assay [6] was more than 100 µM each time. Moreover, the TGI in assay [7], in [8], in [9] and in [10] was more than 100 µM throughout.

For the molecule `COc1cc(N/N=C/C#N)cc(OC)c1OC`, the TGI in assay [1], in assay [2], in assay [3], in assay [4], in assay [5] and in assay [6] was more than 10 µM each time. Further, the TGI in assay [7], in [8], in [9] and in assay [10] was more than 10 µM throughout.

As to `Cc1cc2c(cc1C)[n+](=O)c(C#N)c(Cl)n2[O-]`, the TGI in assay [1] is 55.7 µM; in assay [2] it was 19.7 µM; in assay [3], 48.5 µM; in assay [4], 20.6 µM; in assay [5] it was 31.2 µM; in assay [6], more than 100 µM. The TGI in assay [7] is 28.2 µM; in assay [8], 42.5 µM; in [9], 45.2 µM; in assay [10], 32.2 µM.

Consider `Nc1nncc2c1ccn2C1OC(CO)C(O)C1O` (stereo unspecified), for which the TGI in [1], in assay [2], in assay [3], in assay [4], in assay [5] and in assay [6] was more than 100 µM throughout. Besides, the TGI in [7], in assay [8], in assay [9] and in assay [10] was more than 100 µM throughout.

Regarding `O=C(CCl)NC(Cc1ccc(F)cc1)C(=O)O` (stereo unspecified), the TGI in [1], in assay [2], in assay [3], in [4], in [5] and in assay [6] was more than 100 µM each time. The TGI in assay [7], in assay [8], in [9] and in [10] was more than 100 µM throughout.

`CCC1CN2CCC1CC2` (stereo unspecified): the TGI in [1], in assay [2], in assay [3], in [4], in assay [5] and in assay [6] was more than 100 µM in each case. Moreover, the TGI in assay [7], in assay [8], in [9] and in [10] was more than 100 µM throughout.

As to `N=c1nc2n(cc1F)[C@@H]1O[C@H](CO)[C@@H](O)[C@@H]1O2`, the TGI was more than 100 µM in assay [1]; more than 100 µM in [2]; 18.9 µM in assay [3]; more than 100 µM in assay [4]; more than 100 µM in [5]; more than 100 µM in [6]. Also, the TGI was more than 77.2 µM in assay [7], more than 100 µM in assay [8], more than 95 µM in assay [9] and more than 42.6 µM in assay [10].

For the molecule `C=C1CC[C@@H](Br)C(C)(C)[C@]12CCC(C)(O)C(Cl)C2` (stereo partly specified), the TGI in [1] was 49.7 µM; in [2] it was 33.4 µM; in assay [3], 38.3 µM; in [4] it was 35.8 µM; in [6], 32.6 µM; in assay [8], 40.2 µM. Also, the TGI in assay [9] stood at 78.1 µM; in assay [10], 32 µM.

For the molecule `Oc1c2c(c3c4c1N=CC=4CCN=3)-c1c(Br)cc(Br)cc1CCN2`, the TGI worked out at 29.8 µM in assay [1]; 7.66 µM in assay [2]; 6.23 µM in [5]; 15.5 µM in assay [6]; 9.46 µM in assay [7]; 21.8 µM in [8]. In addition, the TGI in assay [9] turned out to be 22.6 µM; in assay [10], 23.1 µM.

Turning to `CC(=O)OC/C=C/Cn1ncc(=O)[nH]c1=O`, the TGI in [1], in [2], in [3], in assay [4], in assay [6] and in [7] was more than 100 µM each time. Besides, the TGI in assay [8], in [9] and in assay [10] was more than 100 µM throughout.

As for `CC[C@H](Nc1nc(N)nc(C)c1C#N)c1nc2cccc(NCc3ccc(C(=O)NO)cc3)c2c(=O)n1-c1ccccc1`, the GI50 in assay [1] was 2350 nM; in assay [2], 1820 nM; in [3], 2340 nM; in [4], 1200 nM; in assay [5] it was 2.01 µM; in assay [6], 1330 nM. Besides, the GI50 in assay [7] is 1560 nM; in [9], 0.711 µM. Moreover, the TGI is 6.22 µM in [1]; 4.88 µM in assay [2]; more than 100 µM in assay [3]; 3.26 µM in assay [4]; 7.52 µM in assay [5]; 3.19 µM in assay [6]. Moreover, the TGI in [7] worked out at 3.63 µM; in assay [9], 3.97 µM.

For the molecule `CCOC(=O)[C@H]1Nc2c(cccc2[N+](=O)[O-])[C@H]2OCC[C@@H]12`, the TGI in assay [1], in [2], in assay [3], in assay [4], in assay [5] and in assay [6] was more than 100 µM each time. The TGI in [7], in assay [8], in [9] and in assay [10] was more than 100 µM each time.
